Measurements taken from patent US6350609B1, “Electrospraying for mass fabrication of chips and libraries” (New York University, priority 1997, dated 2002).
Where “and” joins values, the source holds several entries; their conditions need not be identical. Equal entries are not always repeated.

Assays:
[1] = test system: goat antibody against human serum albumin; assay: microELISA of electrospray-deposited protein antigens on IMMOBILON-P filter; format: binding; settings: primary antibody against human serum albumin 1:1000, AP-labeled secondary antibody 1:3000
Protocol: Different antigens (serum albumins from human and ox, ovalbumin and human hemoglobin) were electrospray deposited onto a wetted IMMOBILON-P membrane filter through a mask having multiple holes. After each deposition of a different protein antigen, the mask was shifted by 1.1 mm. After depositing all four protein antigens, the membrane filter was dried for 15 min. at 37° C. and blocked by soaking in a PBS solution (10 mM sodium phosphate buffer, pH 7.2, 0.9% NaCl) with 0.05% Tween-20, 1% chicken albumin (ovalbumin). […] The filter was then washed twice with PBS buffer for 10 seconds and reacted with a solution of anti-goat IgG antibodies labeled with alkaline phosphatase (Sigma, diluted 1:3000).

Avidin = Avidin (Gallus gallus, UniProt P02701); assay: Mechano-chemical effect of a specific ligand on cross-linked protein film (isometric tension); format: biochemical; settings: ligand 5-10 times binding constant
Chain of Avidin (P02701 25-152, species assumed): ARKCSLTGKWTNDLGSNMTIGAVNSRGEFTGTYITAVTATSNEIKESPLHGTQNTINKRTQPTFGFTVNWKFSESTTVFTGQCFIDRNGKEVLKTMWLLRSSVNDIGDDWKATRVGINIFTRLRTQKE

α-Lactalburnin = assay: as above; format: biochemical
Description: Using protein as an example of a biomolecule for electrospray deposition, the structure of the protein film and the functional properties of the protein molecules in the film is dependent on the path of flight of the electrospray, speed of the charged particles controlled by voltage, sign of the charges, humidity and temperature under which the protein molecules are electrosprayed, protein concentration in solution, and presence of stabilizers. At short distances, e.g., about 15 mm between capillary and substrate, or when the electrospray takes place in a humid atmosphere (relative humidity of more than 70-80%), charged microdroplets from the electrospray can reach the surface without decay or the production of dry ions, i.e., in the wet electrospray regime. The sample films obtained after evaporation of the deposited microdroplets on the substrate have much in common with the sample protein films obtained conventionally by applying a protein solution directly to the substrate and allowing the proteins to dry.

Pancreatic Trypsin = assay: as above; format: biochemical; settings: ligand concentration 5-10 times binding constant; for Effect in Dried Sample % (relative change in isometric tension in protein film induced by binding of specific ligand): conventional drying on glass
[2] = target: T1, 3-phosphoglycerate kinase (yeast) (Saccharomyces cerevisiae, UniProt P00560); assay: as above; format: biochemical; settings: cross-linked 3-phosphoglycerate kinase (yeast) film, ligand 5-10 times binding constant
T1 sequence (P00560 1-416): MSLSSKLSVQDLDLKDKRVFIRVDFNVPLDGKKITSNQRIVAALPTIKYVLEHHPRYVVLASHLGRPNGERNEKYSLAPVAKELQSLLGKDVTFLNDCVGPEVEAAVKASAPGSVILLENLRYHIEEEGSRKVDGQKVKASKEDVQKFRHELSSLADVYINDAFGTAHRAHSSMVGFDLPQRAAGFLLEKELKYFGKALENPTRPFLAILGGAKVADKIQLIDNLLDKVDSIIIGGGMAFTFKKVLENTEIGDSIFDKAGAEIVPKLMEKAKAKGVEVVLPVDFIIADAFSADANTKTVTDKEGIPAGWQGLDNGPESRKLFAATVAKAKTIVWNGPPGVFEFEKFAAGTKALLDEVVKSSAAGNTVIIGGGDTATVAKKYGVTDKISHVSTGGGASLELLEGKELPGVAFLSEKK

Pancreatic RNAse = target: T2, Pancreatic RNAse (Bos taurus, UniProt P61823); assay: as above; format: biochemical; settings: ligand 5-10 times binding constant
T2 construct: purchased Sigma, St. Louis
T2 sequence (P61823 27-150): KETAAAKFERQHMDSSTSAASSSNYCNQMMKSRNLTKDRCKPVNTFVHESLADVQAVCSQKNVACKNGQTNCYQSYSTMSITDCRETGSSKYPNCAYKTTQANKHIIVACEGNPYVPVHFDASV

[3] = target: T3, Alcohol dehydrogenase (horse liver) (Equus caballus, UniProt P00327); assay: as above; format: biochemical; settings: 0.4 mM NADH solution
T3 construct: purchased Sigma, St. Louis, Mo; host or cells: horse liver
T3 sequence (P00327 whole entry): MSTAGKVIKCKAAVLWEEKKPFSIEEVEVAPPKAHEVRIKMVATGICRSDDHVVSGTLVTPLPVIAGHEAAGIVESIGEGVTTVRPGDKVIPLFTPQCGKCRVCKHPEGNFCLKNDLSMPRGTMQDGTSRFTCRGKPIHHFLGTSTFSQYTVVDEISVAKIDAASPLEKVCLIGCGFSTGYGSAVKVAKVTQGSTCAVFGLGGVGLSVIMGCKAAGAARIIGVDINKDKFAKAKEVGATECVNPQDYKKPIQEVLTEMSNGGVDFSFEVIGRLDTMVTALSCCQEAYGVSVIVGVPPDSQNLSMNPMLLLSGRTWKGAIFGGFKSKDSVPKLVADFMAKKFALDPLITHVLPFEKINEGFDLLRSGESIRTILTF
Protocol: A film of horse liver alcohol dehydrogenase (LADH, Sigma, St. Louis, Mo., shown in FIG. 14B, was fabricated on an Al electrode covered with a sublayer consisting of 95% of the sodium salt of alginic acid (Sigma, St. Louis, Mo.) and 5 of Triton X-100 detergent. The LADH solution containing 5 mg/ml of protein and 1.5 mg/ml of sucrose was electrosprayed in dry air at +4.3 kV and 30-40 nA from a capillary placed about 15 mm over the substrate. The deposited film was cross-linked for 8 minutes with the vapor from 25% glutaraldehyde at 28° C. The samples were then tested for their ability to change isometric tension in response to 0.4 mM NADH solution.

Concanavalin A = Concanavalin A (Canavalia ensiformis, UniProt P02866); settings: cross-linked Concanavalin A film, ligand 5-10 times binding constant
Protocol: Protein films were prepared by electrospray for use in a mechanochemical method of assay. A 2 mg/ml concanavalin A (Sigma, St. Louis, Mo.) solution, containing 0.5 mg/ml of glycerol was electrosprayed through a rectangular single hole onto an Al electrode covered with a polymeric conducting sublayer of about 2-5 microns thick. The sublayer was prepared by drying a thin layer of water solution of a mixture of three compounds (polyethylene glycol-8000, poly(anetholesulfonic acid)—Na-salt and Triton X-100), 3%. each. The protein solution was electrosprayed from a capillary tip placed 20 mm over the substrate, with positive voltage of 4.0 kV at the capillary and a current of 33 nA. Deposition was performed in dry air for 10 minutes. After electrospray deposition, the sample was cross-linked for 15 minutes in a vapor of 25% glutaraldehyde (Aldrich Chemical Company, Milwaukee, Wis.) at 25° C. Upon applying a droplet of water on the substrate surface, the sample was floated off the substrate within 5 seconds.

Lysozyme (egg) = Lysozyme (egg) (Gallus gallus, UniProt P00698); assay: Mechano-chemical effect of a specific ligand on cross-linked protein film (isometric tension); format: biochemical; settings: ligand 5-10 times binding constant
Chain of Lysozyme (egg) (P00698 19-147): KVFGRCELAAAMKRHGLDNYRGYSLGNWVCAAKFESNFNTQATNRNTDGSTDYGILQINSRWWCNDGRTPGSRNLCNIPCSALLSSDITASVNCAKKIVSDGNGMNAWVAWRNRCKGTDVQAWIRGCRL

[4] = target: T4, Alkaline phosphatase (AP) from bovine intestinal mucosa (Bos taurus, UniProt P19111); assay: Effect of AgNO3 added to AP solution on AP activity; format: biochemical; settings: 10^−4 M AgNO3 added to the AP solution
T4 construct: purchased Sigma Chemical Co., St. Louis, Mo; host or cells: bovine intestinal mucosa
T4 sequence (P19111 20-506): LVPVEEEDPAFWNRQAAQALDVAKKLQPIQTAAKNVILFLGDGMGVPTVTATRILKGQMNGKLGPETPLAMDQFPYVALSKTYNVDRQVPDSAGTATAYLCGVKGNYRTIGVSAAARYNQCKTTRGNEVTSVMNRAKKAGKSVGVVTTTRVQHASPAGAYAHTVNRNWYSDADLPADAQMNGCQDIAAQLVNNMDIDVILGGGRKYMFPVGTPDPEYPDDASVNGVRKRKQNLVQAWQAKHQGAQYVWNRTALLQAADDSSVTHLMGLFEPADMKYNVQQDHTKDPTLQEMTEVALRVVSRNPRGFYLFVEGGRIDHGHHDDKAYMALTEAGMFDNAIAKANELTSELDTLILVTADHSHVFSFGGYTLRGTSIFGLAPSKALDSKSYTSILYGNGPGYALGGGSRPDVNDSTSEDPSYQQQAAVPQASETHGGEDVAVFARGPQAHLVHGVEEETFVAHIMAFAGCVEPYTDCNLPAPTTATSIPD
Protocol: AP activity was measured immediately after spot extraction by adding 5-20 μL of the extract solution to 1.0 mL of the p-NPP solution in the TRIS/HCl buffer prepared from Sigma Fast tablets. Activity was measured in a room with a thermostat, with a temperature of 25±1° C. […] The specific activity was calculated using protein concentration measured gravimetrically, as described above in the mass measurement section.
It is believed, therefore, that the inactivation of AP at high voltages and currents occur outside the capillary as a result of reaction with the products of corona discharge or as the result of impact with the target electrode. Impact energy should grow with an increase of the potential, causing protein distraction on impact. This can explain the increase in AP inactivation with increasing voltage and current. The generation of corona products in electrospray deposition at I>200-300 nA was noticeable from a characteristic smell of ozone in the electrospray chamber. […] The capillary with the external electrode supports corona discharge more readily than the capillary with the internal electrode, which explains why AP is inactivated at lower currents and to a higher extent when electrospray deposited from the capillary with the external electrode.

peroxidase = assay: Enzyme activity of electrospray-deposited peroxidase on nitrocellulose filter (DAB substrate); format: biochemical; settings: deposited through polypropylene mask onto wetted nitrocellulose filter; DAB staining
Description: The electrospray conditions used in this example were similar to those used in Example 1.
After electrospray, the pattern of deposited enzyme was not visible on the membrane filter surface. However, the patterns of the enzymes did become visible after soaking the peroxidase-deposited membrane filter in a solution of a standard peroxidase substrate (3,3′-diaminobenzidine, abbreviated DAB, and obtained from Sigma, St. Louis, Mo.), resulting in the formation of an insoluble brown colored product of the peroxidase reaction.

bovine albumin: serum albumin from ox, antigen electrospray deposited onto filter
spot intensity in microELISA [1]: less intensively colored

O=C(O)CCCC[C@@H]1SC[C@@H]2NC(=O)N[C@@H]21 [Biotin]
Effect in Dried Sample % (relative change in isometric tension) (Avidin; conventional drying on glass): −51% | Effect in Electrospray Deposit Sample % (relative change in isometric tension) (Avidin; electrospray deposited): −41% and −48%

[Ca+2] [Ca^+2]
Effect in Dried Sample % (relative change in isometric tension) (α-Lactalburnin; cross-linked α-Lactalburnin film, conventional drying on glass, ligand 5-10 times binding constant): +240% | Effect in Electrospray Deposit Sample % (relative change in isometric tension) (α-Lactalburnin; cross-linked α-Lactalburnin film, electrospray deposited, ligand 5-10 times binding constant): +370% | difference in mechanochemical response to ligand between wet electrospray deposited and conventionally prepared films (α-Lactalburnin; α-lactalbumin films, wet electrospray deposition onto glass covered with conducting SnO2 layer): No notable difference

Nc1ccc2cc3ccc(N)cc3nc2c1 [Proflavin]
Effect in Dried Sample % (relative change in isometric tension in protein film induced by binding of specific ligand) (Pancreatic Trypsin): +69% | Effect in Electrospray Deposit Sample % (relative change in isometric tension in protein film induced by binding of specific ligand) (Pancreatic Trypsin; electrospray deposited): +72; +72%

Nc1ncnc2c1ncn2[C@@H]1O[C@H](COP(=O)(O)OP(=O)([O-])OP(=O)([O-])O)[C@@H](O)[C@H]1O.[Mg+2] [Mg-ATP]
Effect in Dried Sample % (relative change in isometric tension) ([2]; conventional drying on glass): +13% | Effect in Electrospray Deposit Sample % (relative change in isometric tension) ([2]; electrospray deposited): +16%

CCOC(=O)[C@H](CCCN=C(N)N)NC(=O)c1ccccc1 [BAEE]
Effect in Dried Sample % (relative change in isometric tension in protein film induced by binding of specific ligand) (Pancreatic Trypsin): +23%

Nc1ccn([C@@H]2O[C@H](CO)[C@@H](OP(=O)(O)O)[C@H]2O)c(=O)n1 [3′-Cytidine monophosphate]
Effect in Dried Sample % (relative change in isometric tension) (Pancreatic RNAse; conventional drying on glass): +4.0% | Effect in Electrospray Deposit Sample % (relative change in isometric tension) (Pancreatic RNAse; electrospray deposited): −3.4%

NC(=O)C1=CN([C@@H]2O[C@H](COP(=O)(O)OP(=O)(O)OC[C@H]3O[C@@H](n4cnc5c(N)ncnc54)[C@H](O)[C@@H]3O)[C@@H](O)[C@H]2O)C=CC1 [NADH]
ligand-induced increase in isometric tension ([3]; conventionally prepared LADH film): 6-7% | ligand-induced increase in isometric tension ([3]; electrospray deposited LADH film, glutaraldehyde cross-linked): 6-7%

human hemoglobin: protein antigen electrospray deposited onto IMMOBILON-P filter
spot intensity in microELISA [1]: less intensively colored

α-D-mannopyranoside
Effect in Dried Sample % (relative change in isometric tension) (Concanavalin A; conventional drying on glass): +11% | Effect in Electrospray Deposit Sample % (relative change in isometric tension) (Concanavalin A; electrospray deposited): +4%

CC(=O)N[C@H]1C(O)O[C@H](CO)[C@@H](O)[C@@H]1O (stereo partly drawn) [N-acetyl-D-glucosamine]
Effect in Dried Sample % (relative change in isometric tension) (Lysozyme (egg); conventional drying on glass): −7.7% and −8.7% | Effect in Electrospray Deposit Sample % (relative change in isometric tension) (Lysozyme (egg); electrospray deposited): −6.3% and −3.5%

O=[N+]([O-])[O-].[Ag+] [AgNO3]
inhibition of AP [4]: does not result in any inhibition

peroxidase: commercially available peroxidase (Sigma), electrospray deposited; horseradish peroxidase per b108
enzymatic activity after electrospray deposition (peroxidase): retained

B1: ovalbumin: protein antigen electrospray deposited onto IMMOBILON-P filter (protein, UniProt P01012 2-386, looked up)
Ovalbumin: GSIGAASMEFCFDVFKELKVHHANENIFYCPIAIMSALAMVYLGAKDSTRTQINKVVRFDKLPGFGDSIEAQCGTSVNVHSSLRDILNQITKPNDVYSFSLASRLYAEERYPILPEYLQCVKELYRGGLEPINFQTAADQARELINSWVESQTNGIIRNVLQPSSVDSQTAMVLVNAIVFKGLWEKAFKDEDTQAMPFRVTEQESKPVQMMYQIGLFRVASMASEKMKILELPFASGTMSMLVLLPDEVSGLEQLESIINFEKLTEWTSSNVMEERKIKVYLPRMKMEEKYNLTSVLMAMGITDVFSSSANLSGISSAESLKISQAVHAAHAEINEAGREVVGSAEAGVDAASVSEEFRADHPFLFCIKHIATNAVLFFGRCVSP
spot intensity in microELISA [1]: not visible at all
